# In US9695200B2, “Heterocyclic ITK inhibitors for treating inflammation and cancer” (Confluence Life Sciences, Inc., priority 2015, dated 2017):
# What was measured:
# [1] = target: ITK (Homo sapiens (Human), UniProt Q08881); assay: ITK inhibitor binding potency (LanthaScreen competitive binding assay); conditions: TR-FRET tracer-236 displacement, 10 nM ITK; pre-incubation condition not given; read-out: ITK Inhibition IC50
# Text: The ability of candidate compounds to interact with ITK is quantitated by a competitive binding assay using the LanthaScreen technology developed by Life Technologies. This assay is based on the binding of a proprietary, Alexa Fluor® 647-labeled, ATP-competitive kinase inhibitor (kinase tracer-236) to the ITK expression construct in the presence of a Europium-conjugated antibody, resulting in a FRET (fluorescence resonance energy transfer) signal. Displacement of the kinase tracer by compound results in a lower emission ratio upon excitation of the Europium chelate. Candidate compounds are designed as potential irreversible inhibitors of ITK, capable of ligating to an active site cysteine residue resulting in time dependent covalent binding. The time dependent nature of irreversible inhibition is investigated by performing the binding assay with and without a pre-incubation of compound and ITK. […] The inhibitory potency of candidate compounds is measured in 20 mM HEPES pH 7.5, 10 mM MgCl2, 0.01% BSA, 0.0005% Tween-20, and 2% DMSO in the presence of 10 nM ITK, 2 nM Eu-anti-GST antibody, and 50 nM kinase tracer-236 using a 384-well plate format. Background signal is defined in the absence of ITK and uninhibited signal is defined in the presence of vehicle (2% DMSO) alone. Compounds were evaluated in an 11 point dose-response ranging from 20 uM to 0.34 nM. The binding assays are performed under two preincubation conditions to evaluate time dependence of inhibition. For the pre-incubation assay, ITK and Eu-anti-GST antibody are pre-incubated with compound or vehicle for two hours prior to the addition of kinase tracer. The non-preincubated assay is run under conditions where ITK and Eu-anti-GST antibody are added to a mixture of compound and kinase tracer. IC50 values of compounds are determined using a 4 parameter logistical fit of emission ratio as a function of the concentration of compound.
# [2] = system: phospho-PLCγ1 in Jurkat cells; assay: ITK target modulation PLC-γ assay (phospho-PLCγ1, αCD3-stimulated Jurkat cells); type: cell-based, human; conditions: Homo sapiens, 1 hour compound incubation, αCD3 Dynabeads stimulation 8 minutes, MSD phospho-PLCγ1, read-out: PLC-γ Inhibition IC50
# Method: Jurkat cells, an immortalized human T-lymphocyte cell line, were maintained in RPMI media, 10% FBS, 1% pen/strep/glutamine (growth media). Cells were plated in growth media plus 50 μM β-mercaptoethanol at 400,000 cells per well of a 96 well plate.
# Compounds were serially diluted into DMSO, and then into media to concentrations 10× that of the final assay concentration. Compounds were then added to the cells with the final assay DMSO concentration being 0.1%. Cells were incubated for 1 hour at 37° C.
# Following compound incubation, αCD3 Dynabeads were added at 1 bead/cell to each assay well and incubated at 37° C. for 7 minutes. Unstimulated control wells received media only. The plate was then placed on a 96-well magnetic plate for an additional 60 seconds (total assay stimulation time equals 8 minutes). The plate was then dumped and gently patted dry on a paper towel. 50 μl of complete Meso Scale Discovery (MSD) Lysis buffer was then added to each well. Samples were assayed for phospho-PLCγ1 using Meso Scale Discovery technology.
# The assay stimulation time has been optimized for detection of Itk kinase-mediated phosphorylation of PLCγ1. The timing and detection reagents for this assay could be adjusted to capture phosphorylation events upstream (e.g., phospho-ZAP70) or downstream of the Itk/PLCγ1 node, provided the appropriate phospho-specific antibodies are available for building of an MSD assay.
# Chain of ITK (Q08881 whole entry): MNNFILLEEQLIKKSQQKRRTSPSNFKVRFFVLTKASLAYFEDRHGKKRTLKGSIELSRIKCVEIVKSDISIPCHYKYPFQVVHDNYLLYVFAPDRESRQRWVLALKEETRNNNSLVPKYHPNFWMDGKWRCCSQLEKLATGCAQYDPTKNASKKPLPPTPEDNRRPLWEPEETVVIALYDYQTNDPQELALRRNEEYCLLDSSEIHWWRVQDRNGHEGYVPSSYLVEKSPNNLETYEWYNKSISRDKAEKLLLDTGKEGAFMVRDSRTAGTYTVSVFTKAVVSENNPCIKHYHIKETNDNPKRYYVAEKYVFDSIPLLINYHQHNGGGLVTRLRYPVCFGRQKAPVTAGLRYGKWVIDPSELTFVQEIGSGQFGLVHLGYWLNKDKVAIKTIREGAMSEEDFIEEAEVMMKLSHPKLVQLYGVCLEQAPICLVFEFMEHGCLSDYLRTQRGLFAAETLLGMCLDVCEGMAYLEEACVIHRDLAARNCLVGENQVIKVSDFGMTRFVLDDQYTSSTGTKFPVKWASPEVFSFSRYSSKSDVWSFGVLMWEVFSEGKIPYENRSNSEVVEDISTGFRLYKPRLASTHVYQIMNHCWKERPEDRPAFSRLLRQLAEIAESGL
SMILES,IC50 [1],IC50 [2]
"N#C/C(=C\c1cccc(-c2cnc3[nH]cc(-c4ccncc4)c3c2)c1)C(N)=O [Example 8, (E)-2-Cyano-3-(3-(3-(pyridin-4-yl)-1H-pyrrolo[2,3-b]pyridin-5-yl)phenyl)acrylamide]",≤ 1 µM,1 to 5 µM
"C=CC(=O)Nc1cccc(-c2cnc3[nH]cc(-c4ccc(C(=O)Nc5ccc(C(C)C)cc5)cc4)c3c2)c1 [Example 74, 4-(5-(3-acrylamidophen-yl)-1H-pyrrolo[2,3-b]pyridin-3-yl)-N-(4-isopropylphenyl) benzamide]",≤ 1 µM,< 1 µM
"COc1cc(NC(=O)/C=C/CN(C)C)cc(-c2cnc3[nH]cc(-c4ccnc(OC)c4)c3c2)c1 [Example 76, (E)-4-(dimethylamino)-N-(3-methoxy-5-(3-(2-methoxypyridin-4-yl)-1H-pyrrolo[2,3-b]pyridin-5-yl)phenyl)but-2-enamide]",≤ 1 µM,< 1 µM
"C=CC(=O)Nc1cncc(-c2cnc3[nH]cc(-c4ccc(=O)n(C)c4)c3c2)c1 [Example 17, N-(5-(3-(1-methyl-6-oxo-1,6-dihydropyridin-3-yl)-1H-pyrrolo[2,3-b]pyridin-5-yl)pyridin-3-yl)acrylamide]",≤ 1 µM,> 5 µM
"CN(C)C/C=C/C(=O)Nc1cccc(-c2cnc3[nH]cc(-c4ccncc4)c3c2)c1 [Example 24, (E)-4-(dimethylamino)-N-(3-(3-(pyridin-4-yl)-1H-pyrrolo[2,3-b]pyridin-5-yl)phenyl)but-2-enamide]",≤ 1 µM,< 1 µM
"C=CC(=O)Nc1cccc(-c2cnc3[nH]cc(-c4ccnc(OC)c4)c3c2)c1 [Example 6, N-(3-(3-(2-Methoxypyridin-4-yl)-1H-pyrrolo[2,3-b]pyridin-5-yl)phenyl)acrylamide]",≤ 1 µM,< 1 µM
"C=CC(=O)Nc1cc(-c2cnc3[nH]cc(-c4ccnc(OC)c4)c3c2)cc(OC(C)C)n1 [Example 45, N-(6-isopropoxy-4-(3-(2-methoxypyridin-4-yl)-1H-pyrrolo[2,3-b]pyridin-5-yl)pyridin-2-yl)acrylamide]",≤ 1 µM,1 to 5 µM
"CN(C)C/C=C/C(=O)Nc1cccc(-c2cnc3[nH]cc(-c4ccc(=O)n(C)c4)c3c2)c1 [Example 34, (E)-4-(dimethylamino)-N-(3-(3-(1-methyl-6-oxo-1,6-dihydropyridin-3-yl)-1H-pyrrolo[2,3-b]pyridin-5-yl)phenyl)but-2-enamide]",> 1 µM,> 5 µM
"C=CC(=O)N[C@H]1CCN(c2cnc3[nH]cc(-c4ccncc4)c3c2)C1 [Example 14, (S)-N-(1-(3-(pyridin-4-yl)-1H-pyrrolo[2,3-b]pyridin-5-yl)pyrrolidin-3-yl)acrylamide]",≤ 1 µM,> 5 µM
"C=CC(=O)NC1CN(c2cnc3[nH]cc(-c4ccnc(NC)c4)c3c2)C1 [Example 36, N-(1-(3-(2-(methylamino)pyridin-4-yl)-1H-pyrrolo[2,3-b]pyridin-5-yl)azetidin-3-yl)acrylamide]",≤ 1 µM,> 5 µM
"C=CC(=O)NC1CN(c2cnc3[nH]cc(-c4ccnc(C)c4)c3c2)C1 [Example 4, N-(1-(3-(2-Methylpyridin-4-yl)-1H-pyrrolo[2,3-b]pyridin-5-yl)azetidin-3-yl)acrylamide]",≤ 1 µM,> 5 µM
"CN(C)C/C=C/C(=O)Nc1cccc(-c2cnc3[nH]cc(-c4ccnc5[nH]ccc45)c3c2)c1 [Example 89, (E)-N-(3-(1H,1′H-[3,4′-bipyrrolo[2,3-b]pyridin]-5-yl)phenyl)-4-(dimethylamino) but-2-enamide]",≤ 1 µM,< 1 µM
"C=CC(=O)Nc1cccc(-c2cnc3[nH]cc(-c4cc(OC)ncn4)c3c2)c1 [Example 39, N-(3-(3-(6-methoxypyrimi-din-4-yl)-1H-pyrrolo[2,3-b]pyridin-5-yl)phenyl)acryl-amide]",≤ 1 µM,1 to 5 µM
"CN(C)C/C=C/C(=O)Nc1cccc(-c2cnc3[nH]cc(-c4ccc(=O)n(CC5CC5)c4)c3c2)c1 [Example 90, (E)-N-(3-(3-(1-(cyclopropyl-methyl)-6-oxo-1,6-dihydropyridin-3-yl)-1H-pyrrolo[2,3-b]pyridin-5-yl)phenyl)-4-(dimethylamino) but-2-enamide]",≤ 1 µM,> 5 µM
"C=CC(=O)N[C@H]1CCCN(c2cnc3[nH]cc(-c4ccncc4)c3c2)C1 [Example 15, (S)-N-(1-(3-(pyridin-4-yl)-1H-pyrrolo[2,3-b]pyridin-5-yl)piperidin-3-yl)acrylamide]",≤ 1 µM,> 5 µM
"COc1cc(-c2c[nH]c3ncc(-c4cccc(/C=C(\C#N)C(N)=O)c4)cc23)ccn1 [Example 9, (E)-2-Cyano-3-(3-(3-(2-methoxypyridin-4-yl)-1H-pyrrolo[2,3-b]pyridin-5-yl)phenyl)acrylamide]",≤ 1 µM,> 5 µM
"C=CC(=O)NC1CN(c2cnc3[nH]cc(-c4ccccc4)c3c2)C1 [Example 1, N-(1-(3-Phenyl-1H-pyrrolo[2,3-b]pyridin-5-yl)azetidin-3-yl)acrylamide]",≤ 1 µM,> 5 µM
"C=CC(=O)Nc1cccc(-c2cnc3[nH]cc(-c4cn(C)c(=O)c5ccccc45)c3c2)c1 [Example 72, N-(3-(3-(2-methyl-1-oxo-1,2-dihydroisoquino-lin-4-yl)-1H-pyrrolo[2,3-b]pyridin-5-yl)phenyl)acryl-amide]",≤ 1 µM,< 1 µM
"C=CC(=O)Nc1cccc(-c2cnc3[nH]cc(-c4ccc(C(=O)Nc5ccc(C)cc5C)cc4)c3c2)c1 [Example 67, 4-(5-(3-acrylamidophen-yl)-1H-pyrrolo[2,3-b]pyridin-3-yl)-N-(2,4-dimethylphenyl) benzamide]",> 1 µM,< 1 µM
"C=CC(=O)NC1CN(c2cnc3[nH]cc(-c4ccncc4)c3c2)C1 [Example 10, N-(1-(3-(Pyridin-4-yl)-1H-pyrrolo[2,3-b]pyridin-5-yl)azetidin-3-yl)acrylamide]",≤ 1 µM,> 5 µM
"COc1cc(-c2c[nH]c3ncc(-c4cccc(NC(=O)/C=C/CN(C)C)c4)cc23)ccn1 [Example 37, (E)-4-(dimethylamino)-N-(3-(3-(2-methoxypyridin-4-yl)-1H-pyrrolo[2,3-b]pyridin-5-yl)phenyl)but-2-enamide]",≤ 1 µM,1 to 5 µM
"C=CC(=O)Nc1cncc(-c2cnc3[nH]cc(-c4ccnc(C)c4)c3c2)c1 [Example 28, N-(5-(3-(2-methylpyridin-4-yl)-1H-pyrrolo[2,3-b]pyridin-5-yl)pyridin-3-yl)acrylamide]",≤ 1 µM,< 1 µM
"CN(C)C/C=C/C(=O)Nc1cccc(-c2cnc3[nH]cc(-c4cccc(C#N)c4)c3c2)c1 [Example 78, (E)-N-(3-(3-(3-cyanophenyl)-1H-pyrrolo[2,3-b]pyridin-5-yl)phenyl)-4-(dimethylamino) but-2-enamide]",≤ 1 µM,> 5 µM
"COc1cc(-c2c[nH]c3ncc(-c4cccc(NC(=O)/C(C#N)=C/C(C)C)c4)cc23)ccn1 [Example 87, (E)-2-cyano-N-(3-(3-(2-methoxypyridin-4-yl)-1H-pyrrolo[2,3-b]pyridin-5-yl)phenyl)-4-methylpent-2-enamide]",≤ 1 µM,> 5 µM
"C=CC(=O)Nc1cc(-c2cnc3[nH]cc(-c4ccnc(OC)c4)c3c2)cc(C(F)(F)F)c1 [Example 11, N-(3-(3-(2-Methoxypyridin-4-yl)-1H-pyrrolo[2,3-b]pyridin-5-yl)-5-(trifluoromethyl)phenyl)acrylamide]",≤ 1 µM,< 1 µM
"C=CC(=O)NC1CN(c2cnc3[nH]cc(-c4ccnc(F)c4)c3c2)C1 [Example 35, N-(1-(3-(2-fluoropyridin-4-yl)-1H-pyrrolo[2,3-b]pyridin-5-yl)azetidin-3-yl)acrylamide]",≤ 1 µM,> 5 µM
